These are literature values, as cited in US8476249B2, “Method of treating thrombocytopenia” (GlaxoSmithKline LLC, priority 2010, dated 2013).

For data set [1] the following is noted: specifically in the portal vein system.
The conditions of data set [2]: in vivo.

In the case of `CC1=NN(c2ccc(C)c(C)c2)C(=O)/C1=N\Nc1cccc(-c2cccc(C(=O)O)c2)c1O.NCCO.NCCO` [eltrombopag, 3′-[(2Z)-[1-(3,4-dimethylphenyl)-1,5-dihydro-3-methyl-5-oxo-4H-pyrazol-4-ylidene]hydrazino]-2′-hydroxy-[1,1′-biphenyl]-3-carboxylic acid bis-(monoethanolamine)], the thrombotic events entry in data set [1] is given as “associated with thrombotic events”. Take enoxaparin: the “occurrence of portal vein thrombosis” value in data set [2] is on record as “reducing the occurrence of portal vein thrombosis”.
